Data from US7744867B2, “PTPase inhibitors and method of using same” (The Cleveland Clinic Foundation, priority 2001, dated 2010).

How the values were obtained:
NB4 cells = experiment: Differentiation, proliferation and cell cycle of AML cell line; assay type: cell-based, human
Method: Cell lines, cell culture, and cell proliferation assay. The NB4 cell line was a gift from Dr. Dan Lindner of CCF. HL60 and U937 cell lines were purchased from ATCC. These human AML cell lines were maintained in RPMI 1640 medium supplemented with 10% fetal calf serum (FCS). For cell proliferation assays, cells were cultured at 37° C. in 10% FCS medium containing various amounts of sodium stibogluconate for 6 days. The cell numbers in the cultures were determined by an MTT assay as described previously.
Differentiation of AML cell lines was assessed by their ability to produce superoxide as measured by reduction of NBT to formazan and by analysis of expression of CD11b surface marker by flow cytometry. For NBT reduction, each cell suspension was mixed with an equal volume of solution containing 1 mg/ml of NBT (Sigma) and 2.5 μg/ml of TPA for 30 minutes at 37° C. After incubation, cells containing the purple formazan deposits and cells devoid of NBT-reducing activity (white cells) in each sample were determined by counting 200 cells under microscope. We expressed the data as percentage of the following ratio: purple cells/purple+white cells. For analysis of cell surface antigens, cells were exposed to phycoerythrin (PE)−conjugated murine anti-human CD11b (DAKO corp, Carpinteria, Calif.). Analysis of fluorescence was performed on a FACScan flow cytometer (Beckton Dickinson, Mountain View, Calif.). The cell cycle was analyzed by flow cytometry after 3 days of culture of NB4 cells in the absence or presence of sodium stibogluconate (250 μg/ml) or ATRA (1 μM). Briefly, the cells were fixed in cold ethanol and incubated for 30 minutes at 4° C. in the dark with a solution of […] propidium iodide, 1 mg/ml RNase and 0.1% NP-40. Analysis was performed immediately after staining using the CELLFIT program (Becton Dickinson, Mountain View, Calif.).

intracellular Flag-PRL-2 = biological target: T1, intracellular Flag-PRL-2 (Homo sapiens, UniProt Q12974); experiment: PTPase activity of anti-Flag immunocomplexes from NIH3T3 transfectants; assay type: cell-based
T1 construct: expressed in transfected cells; host or cells: NIH3T3
T1 sequence (Q12974 1-167): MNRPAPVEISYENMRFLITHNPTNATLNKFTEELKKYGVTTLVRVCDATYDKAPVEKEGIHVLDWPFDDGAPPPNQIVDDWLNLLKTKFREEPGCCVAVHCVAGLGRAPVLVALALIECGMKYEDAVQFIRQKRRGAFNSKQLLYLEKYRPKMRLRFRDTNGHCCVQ
Method: An expression construct of Flag-tagged PRL-1 or control vector was transfected into NIH3T3 cells which were then treated without or with sodium stibogluconate and used for immunoprecipitation assays with a monoclonal anti-Flag antibody. The immunocomplexes were analyzed by SDS-PAGE/Western blotting and PTPase assays. A Flag-tagged protein with a molecular weight approximately 22 kDa as expected for Flag-PRL-1 was detected in the immunocomplexes from untreated or sodium stibogluconate -treated Flag-PRL-1 transfectants but not in those from the control cells (FIG. 6A).
Flag-PRL-2 transfectants were briefly treated with sodium stibogluconate for 5 minutes, washed to remove cell-free drug and then incubated for various times prior to termination by cell lysis. Anti-Flag immunocomplexes from the cells were analyzed by SDS-PAGE/Western blotting and PTPase assays. The amounts of Flag-PRL-2 proteins in the immunocomplexes were at similar levels as quantified by probing with an anti-Flag antibody. […] PTPase activity of the immunocomplexes from cells incubated for 24 hours was 78% of the untreated cells.
Glucatime-induced inactivation of intracellular PRL-2 lasts more than 24 hours. NIH3T3 stable transfectant of Flag-tagged PRL-2 was treated with glucatime for 5 minutes, washed to remove cell free drug and then incubated for various times prior to termination by lysing the cells in lysis buffer. Flag-tagged PRL-2 was immunoprecipitated from the cell lysates using a monoclonal anti-Flag antibody. The amounts of Flag-tagged PRL-2 in the immunocomplexes were quantified by SDS-PAGE/Western blotting with the anti-Flag antibody (A). Activities of the immunocomplexes in dephosphorylating a synthetic phosphotyrosine peptide were determined by in vitro PTPase assays (B).

GST/SHP-1 fusion protein = biological target: T2, GST/SHP-1 fusion protein (Mus musculus, UniProt P29351); experiment: Reversibility of SHP-1 inhibition (washing of bead-bound GST/SHP-1); assay type: biochemical; details: preincubated with inhibitor, then washed
T2 construct: made in house
T2 sequence (P29351 whole entry, the tested form may be a part): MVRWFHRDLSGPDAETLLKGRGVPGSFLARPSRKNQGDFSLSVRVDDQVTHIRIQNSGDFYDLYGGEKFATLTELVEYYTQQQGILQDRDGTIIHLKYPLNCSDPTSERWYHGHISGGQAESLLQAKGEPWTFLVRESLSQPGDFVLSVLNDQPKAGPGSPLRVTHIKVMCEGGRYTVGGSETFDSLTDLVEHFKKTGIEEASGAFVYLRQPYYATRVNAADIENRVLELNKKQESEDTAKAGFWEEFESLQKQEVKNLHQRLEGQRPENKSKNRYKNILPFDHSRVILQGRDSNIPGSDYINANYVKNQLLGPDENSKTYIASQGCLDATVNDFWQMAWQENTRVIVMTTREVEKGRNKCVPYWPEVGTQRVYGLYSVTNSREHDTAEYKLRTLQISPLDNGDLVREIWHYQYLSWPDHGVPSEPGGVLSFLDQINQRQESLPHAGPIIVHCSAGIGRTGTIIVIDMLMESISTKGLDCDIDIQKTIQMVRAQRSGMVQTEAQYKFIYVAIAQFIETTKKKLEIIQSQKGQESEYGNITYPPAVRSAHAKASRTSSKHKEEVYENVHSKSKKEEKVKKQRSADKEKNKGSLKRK
Source text: The beads were then washed 3 times in Tris buffer or without washing prior to in vitro PTPase assays.

[1] = biological target: T3, intracellular MKP1 in WM9 cells (Homo sapiens, UniProt P28562); experiment: PTPase activity of anti-MKP1 immunocomplexes from WM9 cells; assay type: cell-based; details: treated 5 minutes
T3 construct: endogenous in cells; host or cells: WM9 human melanoma cells
T3 sequence (P28562 whole entry): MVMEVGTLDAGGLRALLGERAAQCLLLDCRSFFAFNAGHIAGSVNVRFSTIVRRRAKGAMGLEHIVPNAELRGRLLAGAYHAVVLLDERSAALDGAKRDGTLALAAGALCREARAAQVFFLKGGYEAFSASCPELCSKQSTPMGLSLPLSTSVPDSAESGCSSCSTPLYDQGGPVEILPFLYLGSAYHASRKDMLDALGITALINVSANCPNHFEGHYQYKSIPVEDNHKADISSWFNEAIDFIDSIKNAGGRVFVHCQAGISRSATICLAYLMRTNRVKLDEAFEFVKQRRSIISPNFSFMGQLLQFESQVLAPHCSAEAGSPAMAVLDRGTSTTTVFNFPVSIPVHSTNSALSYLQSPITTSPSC
Method: FIG. 6C. Sodium stibogluconate inactivates intracellular PRL-2 in WM9 human melanoma cells. A. Relative PTPase activities of anti-Flag immunocomplexes from WM9 cells transfected with the control vector (V) or Flag-PRL-2 expression construct and then treated with different amounts of sodium stibogluconate for 5 minutes B. Relative amounts of Flag-PRL-2 in the immunocomplexes as determined by SDS-PAGE/Western blotting. C. Relative PTPase activities of anti-MKP1 immunocomplexes from WM9 cells treated with different amounts of sodium stibogluconate for 5 minutes. Relative amounts of MKP1 in the immunocomplexes as determined by SDS-PAGE/Western blotting.
Flag-PRL-2 protein was detected in anti-Flag immunocomplexes from WM9 cells tranfected with an expression construct of Flag-PRL-2 but not in those from vector transfectants expected.

WM35 cells (Melanoma) = experiment: Growth inhibition of human tumor cell lines; assay type: cell-based; details: SS 12.5 μg/ml, IFNα 1,000 u/ml, alone or combined
[2] = system: RC45 cells (Renal cell carcinoma); experiment: Growth inhibition of human tumor cell lines; assay type: cell-based; details: SS 12.5 μg/ml, IFNα 1,000 u/ml, alone or combined
[3] = system: U266 cells (Multiple myeloma); experiment: Growth inhibition of human tumor cell lines (MTT); assay type: cell-based; details: SS 12.5 μg/ml, IFNα 1,000 u/ml, alone or combined
Method: (§1) FIG. 8 illustrates growth inhibition of human cell lines of hematopoietic malignancies by sodium stibogluconate and/or IFNα: A and B. Growth of DS and DR cells cultured in the absence or presence of various amounts of sodium stibogluconate and/or IFNα (1,000 u/ml) for 3 days was measured by MTT assays; C. Percentage of growth inhibition of DR cells calculated from data in B; D. Percentage of growth inhibition of DR cells by IFNα (1,000 u/ml) and various amounts of sodium stibogluconate in day 6 cultures measured by MTT assays; E. Percentage of growth inhibition of U266 cells by IFNα (1,000 u/ml) and various amounts of sodium stibogluconate in day 6 cultures as measured by MTT assays.

[4] = system: DR cells (Burkitt's Lymphoma); experiment: Growth inhibition of human tumor cell lines (MTT); assay type: cell-based
Method: as §1

Peer cells (T-ALL) = experiment: Growth inhibition of human tumor cell lines; assay type: cell-based; details: SS 12.5 μg/ml, IFNα 1,000 u/ml, alone or combined

## O.O.O.O.O.O.O.O.O.O=C([O-])[C@@H]1[O][Sb]2([O-])([O][Sb]34([OH])[O][C@H]([C@H](O)CO)[C@H]([O]3)[C@H](C(=O)[O-])[O]4)[O][C@H]([C@H](O)CO)[C@@H]1[O]2.[Na+].[Na+].[Na+] [sodium stibogluconate]
NB4 cells; 12.5-400 μg/ml, 6 days
  proliferation of NB4 cells: markedly inhibited
NB4 cells; 3 days, sodium stibogluconate 250 μg/ml, ATRA 1 μM
  cell cycle arrest (DNA content analysis): growth arrest at S phase
NB4 cells; NB4 cells
  expression levels of PML/RARα chimeric protein: no detectable effect
NB4 cells; dose- and time-dependent
  NB4 cell differentiation (NBT positive cells): induced
Intracellular Flag-PRL-2; treated 5 min
  PTPase activity of Flag-PRL-2 immunocomplexes from treated transfectants: lack of PTPase activity
Intracellular Flag-PRL-2; treated 5 minutes, washed to remove cell free drug
  duration of intracellular PRL-2 inactivation: at least 24 hours
GST/SHP-1 fusion protein
  reversibility of SHP-1 inhibition: stable complexes
[1]
  effect on MKP1 PTPase activity in WM9 cells: no marked effects

## IFNα
WM35 cells (Melanoma)
  % of growth inhibition by day 6 (±s.d.): 19 (3) %
[2]
  % of growth inhibition by day 6 (±s.d.): 70 (15) %
[3]
  % of growth inhibition by day 6 (±s.d.): 78 (10) %
[4]; DR, SS 12.5 μg/ml, IFNα 1,000 u/ml, alone or combined
  % of growth inhibition by day 6 (±s.d.): 39%
[4]; IFNα 1,000 u/ml alone or with various amounts of sodium stibogluconate, day 3
  growth inhibition of DR cells, day 3: 19%
Peer cells (T-ALL)
  % of growth inhibition by day 6 (±s.d.): 86 (4) %
